The values below come from ChEMBL document CHEMBL1201862, “PubChem BioAssay data set” (2004).

Some test systems named below: HOP-92; SK-MEL-28; OVCAR-4; HOP-62; IGROV-1; NCI-H23; M14; OVCAR-5; SF-268; HT-29; EKVX; DMS-114; SW-620; COLO 205; CCRF-CEM; SNB-75.
Common to all, as to assay: NCI-60 cell line screen, 48 h

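Exposure lasted 48 hours, with cells grown in 96-well plates and compounds tested at five concentrations. GI50: concentration for 50% inhibition of growth.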 Active and inactive are the calls of the source. No stated cut-off is given here; in the data, active = GI50 up to about 1.1 µM and inactive = higher.

On to `O=C(Nc1ccc(Cl)cc1Cl)C(=O)C(C(=O)c1ccc2ccccc2c1)C1OC(=O)c2ccccc21` (configuration not stated), for which the GI50 with HOP-92 is 3.3 µM (inactive); in the assay with SK-MEL-28, 3.48 µM (inactive); in the assay on OVCAR-4 it was 10.1 µM (inactive); with HOP-62, 11.9 µM (inactive); with IGROV-1, 13.6 µM (inactive); in the assay with NCI-H23 it was 2.92 µM (inactive). The GI50 in the assay on M14 was 13.4 µM (inactive); in the assay on OVCAR-5, 4.65 µM (inactive); in the assay on SF-268 it was > 10 µM (inactive); in the assay on HT-29 it was 15.7 µM (inactive); in the assay on EKVX it was 15.9 µM (inactive); with DMS-114, 11.1 µM (inactive). The GI50 in the assay with SW-620 is 6.73 µM (inactive); with COLO 205, 9.46 µM (inactive).

As for `Cn1cccc(C(=O)c2ccccc2)c1=O`, the GI50 with CCRF-CEM, with HOP-92, in the assay on SK-MEL-28, with OVCAR-4, in the assay with HOP-62 and in the assay on IGROV-1 was > 100 µM (inactive) in each case. Also, the GI50 in the assay with NCI-H23, in the assay with M14, in the assay with OVCAR-5, in the assay with SF-268, in the assay on HT-29 and in the assay with EKVX was > 100 µM (inactive) throughout. For the same compound, the GI50 with DMS-114, with SW-620, in the assay with COLO 205 and with SNB-75 was > 100 µM (inactive) each time.

For the compound `Cc1c(/C=N/NC(=O)c2ccc(Cl)cc2)c(=O)n(-c2ccccc2)n1C`, the GI50 in the assay on CCRF-CEM, with HOP-92, in the assay with SK-MEL-28, in the assay with OVCAR-4, with HOP-62 and in the assay on IGROV-1 was > 100 µM (inactive) each time. The GI50 in the assay with NCI-H23, with M14, in the assay with SF-268, in the assay with HT-29, in the assay with EKVX and with DMS-114 was > 100 µM (inactive) throughout. In addition, the GI50 with SW-620, in the assay with COLO 205 and with SNB-75 was > 100 µM (inactive) in each case.

Consider `N#CCCC[Si]12OCCN(CCO1)CCO2`, for which the GI50 in the assay on CCRF-CEM, with HOP-92, in the assay on SK-MEL-28, with IGROV-1, with NCI-H23 and in the assay with OVCAR-5 was > 100 µM (inactive) throughout. For the same compound, the GI50 in the assay on SF-268, with HT-29, in the assay on EKVX, in the assay on DMS-114, with SW-620 and with COLO 205 was > 100 µM (inactive) each time. For the same compound, the GI50 in the assay with SNB-75 is > 100 µM (inactive).

In the case of `CC(CN(C)C)/C(=N\Nc1ccccc1)c1ccccc1` (configuration not stated), the GI50 with CCRF-CEM was 0.211 µM (active); in the assay on SK-MEL-28, 2.02 µM (inactive); in the assay with OVCAR-4, 0.794 µM (active); with HOP-62 it was 0.767 µM (active); with IGROV-1 it was 2.09 µM (inactive); with NCI-H23 it was 3.4 µM (inactive). Moreover, the GI50 is 1.46 µM (inactive) in the assay with M14; 1.38 µM (inactive) in the assay on OVCAR-5; 0.22 µM (active) with SF-268; 2.08 µM (inactive) in the assay with HT-29; 1.3 µM (inactive) in the assay on EKVX; 0.743 µM (active) with DMS-114. Besides, the GI50 in the assay on SW-620 is 0.142 µM (active); in the assay with COLO 205, 1.03 µM (active); with SNB-75, 13 µM (inactive).

Regarding `Clc1ccccc1C(n1cc(Br)cn1)n1cc(Br)cn1`, the GI50 was 20.9 µM (inactive) in the assay with CCRF-CEM; 7.48 µM (inactive) in the assay on HOP-92; 40.7 µM (inactive) with SK-MEL-28; > 100 µM (inactive) in the assay with OVCAR-4; 25.5 µM (inactive) in the assay on HOP-62; > 10 µM (inactive) in the assay with IGROV-1. Moreover, the GI50 is 23.1 µM (inactive) in the assay with NCI-H23; 16.3 µM (inactive) with M14; 11.4 µM (inactive) with OVCAR-5; > 10 µM (inactive) in the assay with SF-268; 13.8 µM (inactive) with HT-29; 21.4 µM (inactive) in the assay with DMS-114. Further, the GI50 is > 10 µM (inactive) in the assay on SW-620 and 5.81 µM (inactive) in the assay on SNB-75.

As to `O=C(Nc1nc2ccc([N+](=O)[O-])cc2s1)C(=O)C(C(=O)c1ccncc1)C1OC(=O)c2ccccc21` (configuration not stated), the GI50 with CCRF-CEM, with HOP-92, in the assay with OVCAR-4, with HOP-62, in the assay on IGROV-1 and in the assay on NCI-H23 was > 100 µM (inactive) throughout. Besides, the GI50 in the assay with M14 is > 100 µM (inactive); in the assay with OVCAR-5, > 100 µM (inactive); with SF-268 it was > 100 µM (inactive); in the assay with HT-29 it was > 100 µM (inactive); in the assay with EKVX, 92.5 µM (inactive); in the assay on DMS-114 it was > 100 µM (inactive). The GI50 was > 100 µM (inactive) in the assay on SW-620, > 100 µM (inactive) in the assay on COLO 205 and 33.9 µM (inactive) with SNB-75.

As to `COc1ccc(S(=O)(=O)N/N=C\c2cc([N+](=O)[O-])cc(I)c2O)c(OC)c1OC`, the GI50 in the assay on CCRF-CEM is 24.3 µM (inactive); with HOP-92, 13.5 µM (inactive); in the assay with SK-MEL-28, 24.5 µM (inactive); in the assay with OVCAR-4, 28.4 µM (inactive); in the assay with IGROV-1, 32 µM (inactive); in the assay with NCI-H23, 30.5 µM (inactive). Also, the GI50 was 28.4 µM (inactive) with M14; 32.4 µM (inactive) in the assay with OVCAR-5; 26.5 µM (inactive) in the assay with SF-268; 32.2 µM (inactive) in the assay on HT-29; 29.9 µM (inactive) with EKVX; 25.1 µM (inactive) with DMS-114. Also, the GI50 is 39.8 µM (inactive) with SW-620, 21.4 µM (inactive) in the assay with COLO 205 and 24.7 µM (inactive) in the assay with SNB-75.

Consider `COc1cc2c(cc1OC)C(C(=O)O)C(c1ccccc1)N(C)C2=O` (configuration not stated), for which the GI50 with CCRF-CEM, in the assay with SK-MEL-28, in the assay on OVCAR-4, in the assay on HOP-62, in the assay on IGROV-1 and with NCI-H23 was > 100 µM (inactive) each time. Moreover, the GI50 in the assay with M14, in the assay on OVCAR-5, with SF-268, in the assay with HT-29, in the assay on EKVX and in the assay with DMS-114 was > 100 µM (inactive) throughout. In addition, the GI50 with SW-620, in the assay with COLO 205 and in the assay with SNB-75 was > 100 µM (inactive) in each case.

Regarding `CCN(CC)CCCCC1CCN(CC(=O)N2CC(C)C(=O)Nc3ccccc32)CC1` (configuration not stated), the GI50 in the assay on CCRF-CEM, with HOP-92, in the assay on SK-MEL-28, in the assay on OVCAR-4, in the assay with HOP-62 and in the assay on IGROV-1 was > 100 µM (inactive) throughout. Also, the GI50 in the assay on NCI-H23, in the assay with M14, in the assay with OVCAR-5, with SF-268, in the assay on HT-29 and in the assay with DMS-114 was > 100 µM (inactive) each time. Besides, the GI50 with SW-620 and with COLO 205 was > 100 µM (inactive) in each case.

With `O=C1c2ccc3c4ccccc4n(-c4ccccc4)c3c2C(=O)N1c1ccc(Cl)cc1`, the GI50 in the assay with CCRF-CEM was > 100 µM (inactive); with HOP-92, 37.3 µM (inactive); in the assay on OVCAR-4 it was > 100 µM (inactive); in the assay on HOP-62 it was > 100 µM (inactive); in the assay on IGROV-1 it was > 100 µM (inactive); in the assay with NCI-H23, 8.95 µM (inactive). Further, the GI50 in the assay with M14 was > 100 µM (inactive); with OVCAR-5, > 100 µM (inactive); in the assay on SF-268, > 100 µM (inactive); with HT-29 it was 29 µM (inactive); with EKVX, > 100 µM (inactive); in the assay with DMS-114, > 100 µM (inactive). Moreover, the GI50 in the assay on SW-620, with COLO 205 and with SNB-75 was > 100 µM (inactive) each time.

For the compound `O=C1C=CC(=O)C2C1Cc1ccccc1C2c1ccccc1` (configuration not stated), the GI50 is 20.3 µM (inactive) in the assay with CCRF-CEM; 32 µM (inactive) in the assay on HOP-92; 97.1 µM (inactive) in the assay with SK-MEL-28; 20.5 µM (inactive) in the assay with OVCAR-4; > 100 µM (inactive) with HOP-62; 67 µM (inactive) with IGROV-1. Moreover, the GI50 is 62.1 µM (inactive) in the assay with NCI-H23; 42.8 µM (inactive) in the assay on M14; > 100 µM (inactive) with OVCAR-5; 53.1 µM (inactive) with SF-268; 37.8 µM (inactive) with HT-29; 31.1 µM (inactive) in the assay on EKVX. Also, the GI50 was 22.2 µM (inactive) with DMS-114, 27.7 µM (inactive) in the assay with SW-620, 19.5 µM (inactive) in the assay on COLO 205 and 42.7 µM (inactive) in the assay with SNB-75.

On to `CCN(CC)CCOC(=O)/C(=C/c1ccc(OC)cc1)c1cc(OC)c(OC)c(OC)c1`, for which the GI50 with CCRF-CEM was 18.8 µM (inactive); in the assay on HOP-92, 3.27 µM (inactive); in the assay on SK-MEL-28 it was 6.08 µM (inactive); in the assay with OVCAR-4 it was 31.4 µM (inactive); with HOP-62, 3.8 µM (inactive); with IGROV-1 it was 6.01 µM (inactive). For the same compound, the GI50 in the assay with M14 was 6.43 µM (inactive); with OVCAR-5, 16.4 µM (inactive); in the assay with SF-268, 5.45 µM (inactive); in the assay with HT-29 it was 1.92 µM (inactive); in the assay with EKVX it was 31.5 µM (inactive); in the assay with DMS-114, 4.81 µM (inactive). The GI50 in the assay with SW-620 is 4.18 µM (inactive); in the assay with COLO 205, 5.75 µM (inactive); in the assay with SNB-75, 0.91 µM (active).
